According to patent publication US20210220291A1, “THERAPEUTIC COMPOSITIONS AND METHODS FOR PULMONARY FIBROSIS” (priority 2020, published 2021):

Columns and labels:
Type in all cases: in vivo, wistar rats
MUC 5B = assay: Bleomycin induced lung fibrosis in rats: mucin 5B in lung tissue homogenate; settings: iso-garcinol 10 mg/kg, octahydrocurcumin 150 mg/kg bodyweight, individually and in combination, vs pulmonary fibrosis control (FIG. 8)
Procedure: (§1) After overnight fasting, the wistar rats were anesthetized (60 mg/kg ketamine HCl and 5 mg/kg xylazine) and a midline incision was made in the neck and the trachea was exposed. A tracheal cannula was inserted under direct visualization into the trachea. Pulmonary fibrosis was induced by intratracheal administration of single dose 0.1 mL of bleomycin (5 mg/kg in 0.9% NaCl). Treatment with the test material was given 5 min after administration of bleomycin for 14 consecutive days. After 14 days, BALF (bronchoalveolar lavage fluid) was obtained. Lung tissue was weighed to determine the lung index. Lung homogenate was stored at −80° C. for analysis of bio-markers. […]
(§2) The lung of the animals was removed and rinsed with ice-cold isotonic saline. […] The levels of HIF-1 alpha, TGF-β, IL-13, IL-1β, TNF-α, CCL-17, osteopontin and mucin in the lung tissue homogenate was determined using methods and protocols already reported in scientific literature.

TGF-β = assay: Bleomycin induced lung fibrosis in rats: TGF-β in lung tissue homogenate; settings: iso-garcinol 10 mg/kg, octahydrocurcumin 150 mg/kg bodyweight, individually and in combination, 14 days; for reduction in TGF-β levels: compared to pulmonary fibrosis control group (1721 pg/ml); for TGF-β levels: control group 1721 pg/ml
Procedure: (§3) After overnight fasting, the wistar rats were anesthetized (60 mg/kg ketamine HCl and 5 mg/kg xylazine) and a midline incision was made in the neck and the trachea was exposed. A tracheal cannula was inserted under direct visualization into the trachea. Pulmonary fibrosis was induced by intratracheal administration of single dose 0.1 mL of bleomycin (5 mg/kg in 0.9% NaCl). Treatment with the test material was given 5 min after administration of bleomycin for 14 consecutive days. After 14 days, BALF (bronchoalveolar lavage fluid) was obtained. Lung tissue was weighed to determine the lung index. Lung homogenate was stored at −80° C. for analysis of bio-markers. (Yildirim A, Ersoy Y, Ercan F et al., “Phosphodiesterase-5 inhibition by sildenafil citrate in a rat model of bleomycin-induced lung fibrosis,” Pulmonary Pharmacol Therap. […]; 23(3):215-221; Chen L, Wang T, Wang X et al., “Blockade of advanced glycation end product formation attenuates bleomycin-induced pulmonary fibrosis in rats,” Respiratory Res. 2009; 10:55; Nergiz et al., The Protective Effect of Naringin against Bleomycin-Induced Pulmonary Fibrosis in Wistar Rats. Pulmonary Med. 2016, 12 p, http://dx.doi.org/10.1155/2016/7601393)
(§4) The lung of the animals was removed and rinsed with ice-cold isotonic saline. To the tissues was added 4 ml/g tissue of extraction buffer containing 1 mM phenylmethylsulfonyl fluoride, 1 mg/ml aprotinin and 0.05% Tween 20 in phosphate buffered saline. Tissues were homogenized on ice with a polytron and the homogenate was centrifuged at 5000 g for 15 min. Aliquots of the supernatant were separated and used for biochemical analysis. Supernatants were stored at −80° C. until cytokine analysis (Pandey et al., Multifunctional neuroprotective effect of Withanone, a compound from Withania somnifera roots in alleviating cognitive dysfunction. Cytokine 102 (2018) 211-221). The levels of HIF-1 alpha, TGF-β, IL-13, IL-1β, TNF-α, CCL-17, osteopontin and mucin in the lung tissue homogenate was determined using methods and protocols already reported in scientific literature.

Collagen-I = assay: Bleomycin induced lung fibrosis in rats: collagen 1 levels; settings: iso-garcinol 10 mg/kg p.o., octahydrocurcumin 150 mg/kg, alone and combined; normal control 64.25 ± 4.98, fibrosis control 102.43 ± 3.70
Procedure: as §1, §2

CCL-17 = assay: Bleomycin induced lung fibrosis in rats: CCL-17 in lung tissue homogenate; settings: iso-garcinol 10 mg/kg, octahydrocurcumin 150 mg/kg bodyweight, individually and in combination, vs pulmonary fibrosis control (FIG. 6)
Procedure: as §1, §2

IL-1β = assay: Bleomycin induced lung fibrosis in rats: IL-1β in lung tissue homogenate; settings: iso-garcinol 10 mg/kg, octahydrocurcumin 150 mg/kg bodyweight, individually and in combination, vs pulmonary fibrosis control (FIG. 5)
Procedure: as §1, §2

TNF-α = assay: Bleomycin induced lung fibrosis in rats: TNF-α in lung tissue homogenate; settings: iso-garcinol 10 mg/kg, octahydrocurcumin 150 mg/kg bodyweight, individually and in combination, vs pulmonary fibrosis control (FIG. 5)
Procedure: as §1, §2

HIF-1α = assay: Bleomycin induced lung fibrosis in rats: HIF-1 alpha in lung tissue homogenate; settings: 14 days; for reduction in HIF-α levels: compared to pulmonary fibrosis control group (138.6 pg/ml); for reduction in HIF-α levels / HIF-α levels: iso-garcinol 10 mg/kg, octahydrocurcumin 150 mg/kg bodyweight, individually and in combination; for HIF-α levels: control group 138.6 pg/ml
Procedure: as §3, §4
Different concentration of iso-garcinol (5, 10, 20 mg/kg bodyweight) and octahydrocurcumin were first administered to rats and the effect of the compounds in reducing hypoxia related HIF-α was evaluated. […] Thus, iso-garcinol at 10 mg/kg bodyweight and octahydrocurcumin at 150 mg/kg bodyweight was used for the further combination studies.

IL-13 = assay: Bleomycin induced lung fibrosis in rats: IL-13 in lung tissue homogenate; settings: iso-garcinol 10 mg/kg, octahydrocurcumin 150 mg/kg bodyweight, individually and in combination, vs pulmonary fibrosis control (FIG. 4)
Procedure: as §1, §2

osteopontin = assay: Bleomycin induced lung fibrosis in rats: osteopontin in lung tissue homogenate; settings: iso-garcinol 10 mg/kg, octahydrocurcumin 150 mg/kg bodyweight, individually and in combination, vs pulmonary fibrosis control (FIG. 7)
Procedure: as §1, §2

[1] = Bleomycin induced lung fibrosis in rats: lung index; settings: (weight of the lung/bodyweight)×100; iso-garcinol 10 mg/kg p.o., octahydrocurcumin 150 mg/kg, alone and combined; normal control 0.75 ± 0.053, fibrosis control 1.39 ± 0.034
Procedure: as §3
Lung index calculated using the below formula
Lung Index=(weight of the lung/bodyweight)×100

SMILES | MUC 5B levels (MUC 5B) | reduction in TGF-β levels (TGF-β) [%] | TGF-β levels (TGF-β) [pg/mL] | Collagen-I (Collagen-I) [µg/mL] | CCL-17 levels (CCL-17) | IL-1β levels (IL-1β) | TNF-α levels (TNF-α) | reduction of hypoxia related HIF-α (determination of effective dose) (HIF-1α; bleomycin rats, iso-garcinol 5, 10, 20 mg/kg bodyweight and different doses of octahydrocurcumin (FIG. 1)) | reduction in HIF-α levels (HIF-1α) [%] | HIF-α levels (HIF-1α) [pg/mL] | IL-13 levels (IL-13) | osteopontin levels (osteopontin) | Lung index [1]
CC(C)=CC[C@H]1C[C@@]23C[C@@H](CC=C(C)C)C(C)(C)[C@@](CC=C(C)C)(C(=O)C(C(=O)c4ccc(O)c(O)c4)=C2OC1(C)C)C3=O [iso-garcinol] | reduced | 42.62 | 987.5 | 89.68 ± 3.23 | reduced | significantly reduced | significantly reduced | better reduction of HIF-α at 10 mg/kg bodyweight | 55 | 61.9 | significantly reduced | reduced | 1.19 ± 0.035
COc1cc(CCC(O)CC(O)CCc2ccc(O)c(OC)c2)ccc1O (stereo not shown) [octahydrocurcumin] | – | 28.62 | 1228.4 | 95.56 ± 4.90 | – | – | – | – | 36.6 | 83.7 | – | – | 1.02 ± 0.045
